Entries after “also recorded” stand apart in the source; their conditions may differ. Like-named read-outs stand apart in the source and are kept apart here.
How the values were obtained:
EP4 receptor = EP4 receptor (Homo sapiens, UniProt P35408); test: Schild regression analysis for EP4 receptor; type: cell-based; conditions: for Kb: read-out: KB (μM) EP4, from Schild regression analysis
Description: (§1) Information on the modality of antagonism can be obtained by performing Schild regression analysis characterized by: log (dr−1)=log XB−log KB. In the equation, dose ratio (dr)=fold shift in EC50, XB=[antagonist], KB=equilibrium dissociation constant for the antagonist-receptor complex. […] Thus, a lower KB value indicates a higher inhibitory potency.

C6G cells = test: CellTiter-Glo luminescent cell viability assay (cytotoxicity)
[1] = tested on: rat primary hippocampal cultures; test: NMDA-induced LDH release (excitotoxicity) in primary hippocampal cultures; type: cell-based; conditions: for activity at 10 µM: 10 μM compound
Description: Excitotoxicity caused by NMDA receptor activation is recognized to induce neuronal apoptosis both in vitro and in vivo in cortical neurons. NMDA receptor activation can, via COX-2, cause prostaglandin production, including PGE2. Activation of the EP2 receptor by PGE2 in microglia can promote neuroinflammation in several models of neurodegenerative diseases. The effect of EP2 antagonist compounds were examined on NMDA-induced excitotoxicity. Rat primary hippocampal cultures (DIV13-15) were preincubated with vehicle or increasing concentrations of test compound for 15-20 min, followed by treatment with NMDA (30 μM) plus glycine (10 μM) overnight in continued presence of the test compound. Lactate dehydrogenase (LDH) release was used as the measure of neuronal injury.

in vitro = conditions: rat; for CC50 at 48 h: C6G cells
EP2 receptor [2] = target: T1, EP2 receptor (Homo sapiens, UniProt P43116); test: Schild regression of PGE2-induced EP2 activation in C6G-EP2 cells; type: cell-based; design: expressed in transfected cells; host or cells: C6G-EP2 cells; conditions: for Schild plot slope: PGE2; for Modality of antagonism on EP2 receptor: Schild plots
Procedure: as §1
To perform the Schild regression, C6G-EP2 cells were incubated first with vehicle, 0.01, 0.1 or 1 μM of test compound for 5 minutes, then with increasing concentrations of PGE2 to activate the EP2 receptor.

PC3 cells [3] = test: MTT cell proliferation assay, butaprost-promoted growth; type: cell-based
Description: (§2) PGE2/EP2 signaling has been recognized to play important roles in mediating tumor progression and tumor-associated angiogenesis.

[4] = tested on: iNOS, COX-2, IL-1β and IL-6 expression; test: qRT-PCR of inflammatory mediators in microglia-enriched cultures; type: cell-based, rat
Description: Nitric oxide (NO) synthesized by iNOS and prostaglandins produced by COX-2 are effectors of neurotoxicity and neuroinflammation, thus, these two inducible enzymes have been recognized as inflammatory mediators produced in activated microglia. As the dominant enzymatic product of COX-2, PGE2 therefore might play a role in microglia-mediated neuroinflammation and neurodegeneration.

PC3 cells [5] = test: Cell invasion across Matrigel-coated filter; type: cell-based; conditions: for Effect on PC3 cell invasion (cells moved across Matrigel-coated filter): butaprost 1 μM
Description: as §2

EP2 receptor [6] = target: T1, EP2 receptor; test: Butaprost-induced cAMP accumulation in PC3 cells; type: cell-based; design: PC3 cells express a substantially higher level of EP2 than DU145 and LNCap cells; endogenous in cells; host or cells: PC3 cells; conditions: concentration-dependent
Description: as §2

human DP1 receptors = target: T2, human DP1 receptors (Homo sapiens, UniProt Q13258); test: DP1 assay: BW245C-induced cAMP, TR-FRET, in C6G cells expressing DP1; type: cell-based; conditions: agonist BW245C
T2 construct: expressed in transfected cells
T2 sequence (Q13258 1-359): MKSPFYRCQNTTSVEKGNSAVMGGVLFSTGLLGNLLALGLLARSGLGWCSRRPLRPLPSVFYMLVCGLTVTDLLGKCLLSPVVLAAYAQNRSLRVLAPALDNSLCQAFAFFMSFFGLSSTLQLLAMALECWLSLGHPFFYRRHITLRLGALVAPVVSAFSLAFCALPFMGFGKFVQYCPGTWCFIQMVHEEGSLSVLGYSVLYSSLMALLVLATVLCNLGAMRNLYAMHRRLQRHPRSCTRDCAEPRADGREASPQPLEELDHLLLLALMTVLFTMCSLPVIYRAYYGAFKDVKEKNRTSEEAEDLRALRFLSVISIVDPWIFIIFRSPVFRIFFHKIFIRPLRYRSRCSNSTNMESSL
Procedure: DP1 Assay Both DP1 and EP2 receptors are positively coupled through Gαs to cAMP production and conduct very similar physiological and pathological events. Among the eight canonical prostanoid receptors, DP1 has similarities to EP2 at both protein and DNA level. C6G cells that stably expressing human DP1 receptors were seeded into 384-well plates in 30 μL complete medium (4,000 cells per well) and grown overnight. The medium was thoroughly withdrawn and 10 μL HBSS (HyClone) plus 20 μM rolipram were added into the wells to block phosphodiesterase. […] The cells were lysed in 10 μL lysis buffer containing the FRET acceptor cAMP-d2 and 1 min later another 10 μL lysis buffer with anti-cAMP-Cryptate was added. […] The FRET signal is expressed as F665/[…].

[7] = tested on: rat microglia-enriched cultures; test: LDH release in microglia-enriched cultures; type: cell-based; conditions: 10 μM, overnight, basal
Procedure: Microglia are the initial and major mediators of neuroinflammation and neurodegeneration in various models of neurological disorders. EP2 receptor has been reported to regulate microglial activation and subsequent neurotoxicity in several animal models. The effects of EP2 activation in microglia were investigated. Rat microglia-enriched cultures were incubated with vehicle, butaprost, or compound A1 overnight. The cellular viability was evaluated by measuring Lactate dehydrogenase (LDH) release.

[8] = Rattus norvegicus, NMDA 30 μM plus glycine 10 μM overnight, read-out: NMDA-induced LDH release, % of control
[9] = C6G-EP2 cells, PGE2 as agonist, read-out: KB (nM) EP2, from Schild regression analysis
[10] = additional compounds tables, read-out: EP2 KB

Sequence of EP4 receptor (P35408 whole entry): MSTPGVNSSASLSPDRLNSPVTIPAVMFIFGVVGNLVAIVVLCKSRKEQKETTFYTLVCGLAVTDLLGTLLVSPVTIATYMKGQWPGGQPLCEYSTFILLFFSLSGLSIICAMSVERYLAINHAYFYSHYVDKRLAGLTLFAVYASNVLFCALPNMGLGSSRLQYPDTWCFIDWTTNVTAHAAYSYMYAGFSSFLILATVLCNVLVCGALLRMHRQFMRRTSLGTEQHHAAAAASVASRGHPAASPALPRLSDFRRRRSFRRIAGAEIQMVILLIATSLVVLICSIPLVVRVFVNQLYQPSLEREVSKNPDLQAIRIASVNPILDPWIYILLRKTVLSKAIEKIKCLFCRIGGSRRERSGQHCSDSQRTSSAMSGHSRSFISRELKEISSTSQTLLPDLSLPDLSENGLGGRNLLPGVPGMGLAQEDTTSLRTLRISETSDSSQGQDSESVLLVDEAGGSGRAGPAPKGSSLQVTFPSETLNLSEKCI
T1 sequence (P43116 whole entry): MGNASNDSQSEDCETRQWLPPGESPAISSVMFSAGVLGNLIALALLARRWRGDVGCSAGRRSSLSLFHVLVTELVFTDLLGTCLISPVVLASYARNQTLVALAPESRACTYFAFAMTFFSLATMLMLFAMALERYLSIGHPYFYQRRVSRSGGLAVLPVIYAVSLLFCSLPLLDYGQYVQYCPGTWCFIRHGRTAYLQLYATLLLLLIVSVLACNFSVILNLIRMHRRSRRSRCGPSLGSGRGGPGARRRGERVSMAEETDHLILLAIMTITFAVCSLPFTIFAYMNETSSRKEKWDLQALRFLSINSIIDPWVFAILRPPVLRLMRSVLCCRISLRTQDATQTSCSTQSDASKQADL

SMILES	Selective index, KB EP4/KB EP2 (EP4 receptor)	Kb (EP4 receptor) [µM]	Therapeutic index (in vitro), CC50/KB for EP2 (C6G cells)	activity at 10 µM [1, 8] [%]	CC50 at 48 h (in vitro) [nM]	Kb (EP2 receptor [2]; [9]) [nM]	Kb (human DP1 receptors) [nM]	Kb (EP2 receptor [2]; [10]) [nM]	further results
COc1cc(C=CC(=O)NCCn2c(C)cc3cc(F)ccc32)cc(OC)c1OC [1f, N-(2-(5-fluoro-2-methyl-1H-indol-1-yl)ethyl)-3-(3,4,5-trimethoxyphenyl)acrylamide]	2,600	5.4	73,800	38.5	155000	2.1			
COc1ccc(/C=C/C(=O)NCCn2c(C)cc3ccccc32)cc1Cl [1w]	2,470	4.7	253,000	78.4	481000	1.9			
COc1cc(C=CC(=O)NCCn2c(C)cc3ccccc32)cc(OC)c1OC [A1, N-(2-(2-methyl-1H-indol-1-yl)ethyl)-3-(3,4,5-trimethoxyphenyl)acrylamide]				50.8					Effect on butaprost-induced PC3 cell growth (PC3 cells [3]; concentration-dependent): attenuated; Effect on butaprost-induced upregulation of inflammatory mediators ([4]; 0.1-10 μM, concentration-dependent): inhibited; also recorded: attenuated; Effect on PC3 cell invasion promoted by EP2 activation (PC3 cells [5]; cotreatment 1 μM with butaprost 1 μM): inhibited; also recorded: blocked; activity at 0.01 µM ([1]; Rattus norvegicus, 0.01 μM compound, NMDA 30 μM plus glycine 10 μM overnight, read-out: NMDA-induced LDH release, % of control): 94%; activity at 0.1 µM ([1]; Rattus norvegicus, 0.1 μM compound, NMDA 30 μM plus glycine 10 μM overnight, read-out: NMDA-induced LDH release, % of control): 87.8%; activity at 1 µM ([1]; Rattus norvegicus, 1 μM compound, NMDA 30 μM plus glycine 10 μM overnight, read-out: NMDA-induced LDH release, % of control): 73.9%; EC50 ([1]; rat hippocampal cultures, read-out: EC50 for the reduction of NMDA-induced LDH release): 800 nM; CC50 (in vitro): 172000 nM; Schild plot slope (EP2 receptor [2]; C6G-EP2 cells): 1.0; Modality of antagonism on EP2 receptor (EP2 receptor [2]): competitive antagonism; Inhibition of butaprost-induced EP2 receptor activation (EP2 receptor [6]): robust competitive inhibition
COc1ccc(C=CC(=O)NCCn2c(C)cc3ccccc32)cc1OC [A2, 3-(3,4-dimethoxyphenyl)-N-(2-(2-methyl-1H-indol-1-yl)ethyl)acrylamide]	435	2	86,300	77.8	397000	4.6			Schild plot slope (EP2 receptor [2]; C6G-EP2 cells): 1.1; Modality of antagonism on EP2 receptor (EP2 receptor [2]): competitive antagonism
COc1cc(/C=C/C(=O)NCCc2c(C)[nH]c3ccccc23)cc(OC)c1OC [TG7-74]							112	2.9	
COc1ccc(/C=C/C(=O)NCCc2c(C)[nH]c3ccccc23)cc1OC [TG7-76]							227	6	
Cc1cc(/C=C/C(=O)NCCn2c(C)cc3ccccc32)cc(C)c1F [TG7-98, 3-(4-fluoro-3,5-dimethylphenyl)-N-(2-(2-methyl-1H-indol-1-yl)ethyl)acrylamide]							745	4.4	
COc1ccc(C(=O)NCCn2c(C)cc3ccccc32)cc1OC [TG7-112-2, 3,4-dimethoxy-N-(2-(2-methyl-1H-indol-1-yl)ethyl)benzamide]							1430		
CC(=O)Nc1ccc(C(=O)NCCn2c(C)cc3ccccc32)cc1 [TG7-117, 4-acetamido-N-(2-(2-methyl-1H-indol-1-yl)ethyl)benzamide]							5830	83	
CCCC1([C@H](O)C/C=C/[C@H]2[C@H](O)CC(=O)[C@@H]2CCCCCCC(=O)OC)CCC1 [butaprost]									Concentration giving maximal response of PC3 cell growth (PC3 cells [3]): 1 µM; Effect of EP2 activation on PC3 cell growth (PC3 cells [3]): promoted PC3 cell growth; COX-2 expression increase ([4]; butaprost 1 μM, qRT-PCR): 16.3 fold; IL-1β expression increase ([4]; butaprost 1 μM, qRT-PCR): 1.8 fold; IL-6 expression increase ([4]; butaprost 1 μM, qRT-PCR): 11.1 fold; iNOS expression increase ([4]; butaprost 1 μM, qRT-PCR): 3.4 fold; LDH release compared to control [7]: 138%; Effect on PC3 cell invasion (cells moved across Matrigel-coated filter) (PC3 cells [5]): promoted cell invasion; Effect on PC3 cell invasion (cells moved across Matrigel-coated filter) (PC3 cells [5]; listed as Butaprost): significantly increased
